Holding throughout (type): ADME, subcellular
Series [1] has as its target T1, Aldehyde oxidase (Homo sapiens, UniProt Q06278).
T1 sequence (Q06278 whole entry): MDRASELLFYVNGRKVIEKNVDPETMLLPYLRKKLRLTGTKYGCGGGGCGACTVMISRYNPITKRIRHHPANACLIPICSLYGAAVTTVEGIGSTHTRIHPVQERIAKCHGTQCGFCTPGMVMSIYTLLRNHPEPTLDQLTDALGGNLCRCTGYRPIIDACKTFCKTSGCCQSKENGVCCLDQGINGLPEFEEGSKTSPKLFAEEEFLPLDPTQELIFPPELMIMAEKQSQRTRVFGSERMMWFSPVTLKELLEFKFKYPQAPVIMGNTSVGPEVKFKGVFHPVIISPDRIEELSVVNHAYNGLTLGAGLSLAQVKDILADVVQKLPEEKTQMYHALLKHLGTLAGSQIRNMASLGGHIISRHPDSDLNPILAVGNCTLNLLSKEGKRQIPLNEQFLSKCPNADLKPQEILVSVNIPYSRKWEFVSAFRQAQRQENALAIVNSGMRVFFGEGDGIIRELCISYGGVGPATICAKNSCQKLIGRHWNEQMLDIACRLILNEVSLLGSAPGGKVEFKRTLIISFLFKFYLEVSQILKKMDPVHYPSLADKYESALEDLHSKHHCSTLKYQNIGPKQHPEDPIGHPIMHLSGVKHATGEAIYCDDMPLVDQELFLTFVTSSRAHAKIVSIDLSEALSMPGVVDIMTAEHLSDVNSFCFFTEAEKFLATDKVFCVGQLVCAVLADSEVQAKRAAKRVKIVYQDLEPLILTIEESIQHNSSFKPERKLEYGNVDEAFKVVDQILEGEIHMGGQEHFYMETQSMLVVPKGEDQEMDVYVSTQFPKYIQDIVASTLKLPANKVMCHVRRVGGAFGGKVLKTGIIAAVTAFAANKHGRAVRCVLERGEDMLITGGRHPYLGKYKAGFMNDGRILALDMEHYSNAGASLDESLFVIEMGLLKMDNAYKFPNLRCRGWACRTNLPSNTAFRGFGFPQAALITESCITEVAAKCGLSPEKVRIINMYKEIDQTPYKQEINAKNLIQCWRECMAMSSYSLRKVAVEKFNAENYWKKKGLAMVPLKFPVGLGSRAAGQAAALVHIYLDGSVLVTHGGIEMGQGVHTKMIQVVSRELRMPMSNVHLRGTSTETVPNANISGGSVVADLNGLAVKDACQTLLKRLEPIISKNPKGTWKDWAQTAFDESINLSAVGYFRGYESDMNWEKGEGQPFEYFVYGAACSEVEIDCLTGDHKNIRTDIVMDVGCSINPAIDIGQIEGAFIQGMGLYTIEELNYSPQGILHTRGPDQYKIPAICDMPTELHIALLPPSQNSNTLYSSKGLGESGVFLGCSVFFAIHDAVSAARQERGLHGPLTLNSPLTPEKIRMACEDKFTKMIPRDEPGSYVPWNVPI
As to the kind of experiment: Drug level in human liver S9 fraction assessed as aldehyde oxidase-mediated compound formation treated with 10 uM 5-butyl-N-carbamimidoyl-1-(quinolin-5-yl)-1H-pyrazole-4-carboxamide by spectrometry.

For series [2], the target named is T1, Aldehyde oxidase. The series can be described thus: Half life in human liver S9 fraction assessed as aldehyde oxidase-mediated 2-oxo-metabolite formation at 1 uM by spectrometry. Conditions: s9, 1 µM.
The target of series [3] is T1, Aldehyde oxidase. The series can be described thus: Drug metabolism in human liver S9 fraction assessed as aldehyde oxidase-mediated 2-oxo-metabolite formation at 10 uM by spectrometry. Conditions: s9, 10 µM.
The target of series [4] is T1, Aldehyde oxidase. As to the kind of experiment: Drug level in human liver S9 fraction assessed as aldehyde oxidase-mediated compound formation treated with 10 uM N-carbamimidoyl-5-methyl-1-(quinolin-5-yl)-1H-pyrazole-4-carboxamide by spectrometry.
Series [5] deals with T1, Aldehyde oxidase. As to the kind of experiment: Drug level in human liver S9 fraction assessed as aldehyde oxidase-mediated compound formation treated with 10 uM zoniporide by spectrometry.
Series [6] deals with T1, Aldehyde oxidase. The series can be described thus: Drug level in human liver S9 fraction assessed as aldehyde oxidase-mediated compound formation treated with 10 uM 5-cyclopropyl-1-(quinolin-5-yl)-1H-pyrazole-4-carboxamide by spectrometry.
The target in series [7] is T1, Aldehyde oxidase. The series can be described thus: Drug level in human liver S9 fraction assessed as aldehyde oxidase-mediated compound formation treated with 10 uM N-carbamimidoyl-3-cyclopropyl-1-(quinolin-5-yl)-1H-pyrazole-4-carboxamideby spectrometry.
Series [8] concerns the target T1, Aldehyde oxidase. The series can be described thus: Drug level in human liver S9 fraction assessed as aldehyde oxidase-mediated compound formation treated with 10 uM N-carbamimidoyl-5-propyl-1-(quinolin-5-yl)-1H-pyrazole-4-carboxamide by spectrometry.
Series [9] concerns the target T1, Aldehyde oxidase. As to the kind of experiment: Drug level in human liver S9 fraction assessed as aldehyde oxidase-mediated compound formation treated with 10 uM N-carbamimidoyl-5-isopropyl-1-(quinolin-5-yl)-1H-pyrazole-4-carboxamide by spectrometry.
The target of series [10] is T1, Aldehyde oxidase. The series can be described thus: Drug level in human liver S9 fraction assessed as aldehyde oxidase-mediated compound formation treated with 10 uM N-carbamimidoyl-5-(methoxymethyl)-1-(quinolin-5-yl)-1H-pyrazole-4-carboxamide by spectrometry.
The target of series [11] is T1, Aldehyde oxidase. As to the kind of experiment: Drug level in human liver S9 fraction assessed as aldehyde oxidase-mediated compound formation treated with 10 uM 5-cyclopropyl-N,N-diethyl-1-(quinolin-5-yl)-1H-pyrazole-4-carboxamide by spectrometry.
The target in series [12] is T1, Aldehyde oxidase. As to the kind of experiment: Drug level in human liver S9 fraction assessed as aldehyde oxidase-mediated compound formation treated with 10 uM 5-cyclopropyl-1-(quinolin-5-yl)-1H-pyrazole-4-carboxylic acid by spectrometry.
Substrate in series [13]: CC(C)c1c(C(=O)NC(=N)N)cnn1-c1cccc2ncccc12
As to the kind of experiment: (§1) Drug metabolism in human liver S9 fraction assessed as aldehyde oxidase-mediated 2-oxo-metabolite formation by spectrometry.

Substrate in series [14]: COCc1c(C(=O)NC(=N)N)cnn1-c1cccc2ncccc12
The description is as §1.

Substrate in series [15]: N=C(N)NC(=O)c1cnn(-c2ccnc3ccccc23)c1C1CC1
Described as §1.

Substrate in series [16]: N=C(N)NC(=O)c1cnn(-c2ccc3ncccc3c2)c1C1CC1
The description is as §1.

Substrate in series [17]: CCN(CC)C(=O)c1cnn(-c2cccc3ncccc23)c1C1CC1
Described as §1.

Substrate in series [18]: N=C(N)NC(=O)c1cn(-c2cccc3ncccc23)nc1C1CC1
Described as §1.

Bounds are passed on as bounds.

What is called Km is the substrate concentration at which the rate is half of its maximum.

With `CCCCc1c(C(=O)NC(=N)N)cnn1-c1cccc2[nH]c(=O)ccc12`, the Drug metabolism entry in [1] is given as “metabolite_detected”.
For `CCCCc1c(C(=O)NC(=N)N)cnn1-c1cccc2ncccc12`, the t1/2 in series [2] was 48 min. Moreover, in series [3], the Drug metabolism result was “metabolite_detected”.
Take `NC(=O)c1cnn(-c2cccc3ncccc23)c1C1CC1`: the t1/2 in series [2] was 110 min. Further, in series [3], the Drug metabolism result is listed as “metabolite_detected”.
Take `N=C(N)NC(=O)c1cnn(-c2cccc3ncccc23)c1C1CC1` [ZONIPORIDE]: in [2], the t1/2 is given as 26 min. In addition, in series [3], the Drug metabolism result is listed as “metabolite_detected”.
For `N=C(N)NC(=O)c1cn(-c2cccc3ncccc23)nc1C1CC1` the same measures were 3.1 min and “metabolite_detected”.
In the case of `CCN(CC)C(=O)c1cnn(-c2cccc3ncccc23)c1C1CC1`, the t1/2 in series [2] is 37 min. Besides, the Drug metabolism result in series [3] is reported as “metabolite_detected”.
`O=C(O)c1cnn(-c2cccc3ncccc23)c1C1CC1`: the t1/2 in series [2] worked out at 120 min. For the same molecule, in series [3], the Drug metabolism entry was “metabolite_detected”.
For `COc1ccc2ncccc2c1-n1ncc(C(=O)NC(=N)N)c1C1CC1`, the t1/2 in series [2] was found to be 120 min. Besides, in series [3], the Drug metabolism entry is on record as “metabolite_detected”.
Take `Cc1c(C(=O)NC(=N)N)cnn1-c1cccc2[nH]c(=O)ccc12`: the Drug metabolism result in [4] was “metabolite_detected”.
Take `CC(C)c1c(C(=O)NC(=N)N)cnn1-c1cccc2ncccc12`: the t1/2 in series [2] is 15 min. Besides, the Drug metabolism result in series [3] was “metabolite_detected”.
On to `N=C(N)NC(=O)c1cnn(-c2cccc3[nH]c(=O)ccc23)c1C1CC1`, for which the Drug metabolism result in series [5] is “metabolite_detected”.
Regarding `NC(=O)c1cnn(-c2cccc3[nH]c(=O)ccc23)c1C1CC1`, the Drug metabolism entry in [6] is “metabolite_detected”.
In the case of `N=C(N)NC(=O)c1cnn(-c2cccc3[nH]cnc23)c1C1CC1`, the t1/2 in series [2] is 120 min. Also, the Drug metabolism entry in series [3] is given as “metabolite_detected”.
With `N=C(N)NC(=O)c1cn(-c2cccc3[nH]c(=O)ccc23)nc1C1CC1`, in series [7], the Drug metabolism entry is recorded as “metabolite_detected”.
In the case of `CCCc1c(C(=O)NC(=N)N)cnn1-c1cccc2[nH]c(=O)ccc12`, the Drug metabolism entry in series [8] is listed as “metabolite_detected”.
`N=C(N)NC(=O)c1cnn(-c2ccnc3ccccc23)c1C1CC1`: the t1/2 in series [2] stood at 14 min. Further, the Drug metabolism result in series [3] was “metabolite_detected”.
For `CC(C)c1c(C(=O)NC(=N)N)cnn1-c1cccc2[nH]c(=O)ccc12`, the Drug metabolism result in series [9] is recorded as “metabolite_detected”.
Turning to `N=C(N)NC(=O)c1cnn(-c2ccc3ncccc3c2)c1C1CC1`, in [2], the t1/2 is on record as below 5 min. The Drug metabolism result in [3] was “metabolite_detected”.
With `N=C(N)NC(=O)c1cnn(-c2cccc3[nH]ncc23)c1C1CC1`, in series [3], the Drug metabolism entry is on record as “metabolite_not_detected”.
For the molecule `COCc1c(C(=O)NC(=N)N)cnn1-c1cccc2[nH]c(=O)ccc12`, the Drug metabolism result in series [10] is on record as “metabolite_detected”.
`CCN(CC)C(=O)c1cnn(-c2cccc3[nH]c(=O)ccc23)c1C1CC1`: in series [11], the Drug metabolism entry is on record as “metabolite_detected”.
For the molecule `N=C(N)NC(=O)c1cnn(-c2c(O)ccc3ncccc23)c1C1CC1`, in series [2], the t1/2 came out at 120 min. For the same molecule, in [3], the Drug metabolism result is “metabolite_detected”.
Consider `CCCc1c(C(=O)NC(=N)N)cnn1-c1cccc2ncccc12`, for which the t1/2 in series [2] is 41 min. In addition, the Drug metabolism entry in series [3] was “metabolite_detected”.
Take `Cc1c(C(=O)N=C(N)N)cnn1-c1cccc2ncccc12`: the t1/2 in series [2] is on record as 33 min. Moreover, in [3], the Drug metabolism entry was “metabolite_detected”.
With `Cc1ccc2ncccc2c1-n1ncc(C(=O)NC(=N)N)c1C1CC1`, the t1/2 in series [2] came to 120 min. The Drug metabolism result in series [3] is listed as “metabolite_detected”.
As to `O=C(O)c1cnn(-c2cccc3[nH]c(=O)ccc23)c1C1CC1`, the Drug metabolism entry in series [12] is reported as “metabolite_detected”.
Regarding `COCc1c(C(=O)NC(=N)N)cnn1-c1cccc2ncccc12`, in series [2], the t1/2 came to 120 min. Moreover, the Drug metabolism result in [3] is listed as “metabolite_detected”.
For `N=C(N)NC(=O)c1cnn(-c2cccc3[nH]ccc23)c1C1CC1`, in series [3], the Drug metabolism entry was “metabolite_not_detected”.

B1: Aldehyde oxidase (Homo sapiens) (protein)
chain: MDRASELLFYVNGRKVIEKNVDPETMLLPYLRKKLRLTGTKYGCGGGGCGACTVMISRYNPITKRIRHHPANACLIPICSLYGAAVTTVEGIGSTHTRIHPVQERIAKCHGTQCGFCTPGMVMSIYTLLRNHPEPTLDQLTDALGGNLCRCTGYRPIIDACKTFCKTSGCCQSKENGVCCLDQGINGLPEFEEGSKTSPKLFAEEEFLPLDPTQELIFPPELMIMAEKQSQRTRVFGSERMMWFSPVTLKELLEFKFKYPQAPVIMGNTSVGPEVKFKGVFHPVIISPDRIEELSVVNHAYNGLTLGAGLSLAQVKDILADVVQKLPEEKTQMYHALLKHLGTLAGSQIRNMASLGGHIISRHPDSDLNPILAVGNCTLNLLSKEGKRQIPLNEQFLSKCPNADLKPQEILVSVNIPYSRKWEFVSAFRQAQRQENALAIVNSGMRVFFGEGDGIIRELCISYGGVGPATICAKNSCQKLIGRHWNEQMLDIACRLILNEVSLLGSAPGGKVEFKRTLIISFLFKFYLEVSQILKKMDPVHYPSLADKYESALEDLHSKHHCSTLKYQNIGPKQHPEDPIGHPIMHLSGVKHATGEAIYCDDMPLVDQELFLTFVTSSRAHAKIVSIDLSEALSMPGVVDIMTAEHLSDVNSFCFFTEAEKFLATDKVFCVGQLVCAVLADSEVQAKRAAKRVKIVYQDLEPLILTIEESIQHNSSFKPERKLEYGNVDEAFKVVDQILEGEIHMGGQEHFYMETQSMLVVPKGEDQEMDVYVSTQFPKYIQDIVASTLKLPANKVMCHVRRVGGAFGGKVLKTGIIAAVTAFAANKHGRAVRCVLERGEDMLITGGRHPYLGKYKAGFMNDGRILALDMEHYSNAGASLDESLFVIEMGLLKMDNAYKFPNLRCRGWACRTNLPSNTAFRGFGFPQAALITESCITEVAAKCGLSPEKVRIINMYKEIDQTPYKQEINAKNLIQCWRECMAMSSYSLRKVAVEKFNAENYWKKKGLAMVPLKFPVGLGSRAAGQAAALVHIYLDGSVLVTHGGIEMGQGVHTKMIQVVSRELRMPMSNVHLRGTSTETVPNANISGGSVVADLNGLAVKDACQTLLKRLEPIISKNPKGTWKDWAQTAFDESINLSAVGYFRGYESDMNWEKGEGQPFEYFVYGAACSEVEIDCLTGDHKNIRTDIVMDVGCSINPAIDIGQIEGAFIQGMGLYTIEELNYSPQGILHTRGPDQYKIPAICDMPTELHIALLPPSQNSNTLYSSKGLGESGVFLGCSVFFAIHDAVSAARQERGLHGPLTLNSPLTPEKIRMACEDKFTKMIPRDEPGSYVPWNVPI
For the molecule B1, the Km stood at 2.2 µM in series [13]; 9 µM in series [14]; 1.8 µM in series [15]; 1.2 µM in series [16]; 16 µM in [17]; 0.4 µM in [18].

For the origin of these results see ChEMBL document CHEMBL3525904, “Effect of structural variation on aldehyde oxidase-catalyzed oxidation of zoniporide” (Drug Metab Dispos, 2012).
